In US5968967A, “Pyrazolones derivatives” (Nissan Chemical Industries, Ltd., priority 1995, dated 1999):
Where a name gives a salt, the structure may show the parent alone. Read-outs that look alike come from different tables or passages of the source.

Tested on: Guinea-pig PRP (platelet aggregation)
Experiment: (A) In vitro antiplatelet aggregation effect in guinea pigs (PRP), Table IV-1
Assay type: cell-based, guinea pig (Hartley male)
Settings: Cavia porcellus, PRP 300,000/mm^3, 37° C.
Protocol: Nine parts by volume of blood was collected from the abdominal artery of Hartley male guinea-pigs (weight: about 300 g) in syringes containing 1 part by volume of 3.8% sodium citrate. The blood thus obtained was centrifuged at 200×g for 10 minutes at room temperature to obtain platelet rich plasma (PRP). Furthermore, the residue was centrifuged at 2000×g for 15 minutes to obtain platelet poor plasma (PPP). The measurement was effected by diluting PRP with PPP to 300,000/mm^3. PRP and PPP were put in cuvettes, and the measurement range of transmittance was adjusted to 0% in the case of PRP and to 100% in the case of PPP. Thereafter, a test sample drug dissolved in H2 O:MeOH (1:2) was added to PRP. After the PRP was incubated at 37° C. at 1000 rpm for 2 minutes, an aggregating agent was added to record an aggregation curve. The antiplatelet aggregation effect of the test sample drug was expressed by the concentration (IC50 : μM) at which the aggregation of the control sample was 50% inhibited. […] The measurement of platelet aggregation was carried out by using NBS HEMA TRACER 601.
In vitro antiplatelet aggregation tests; (A) and (B) Tables IV-1 and 2 show antiplatelet aggregation effects of test compounds evaluated as IC50 values (μM). The compound Nos. in Table I should be referred to for the structures of the compounds.

[1] = aggregating agent ADP, read-out: Guinea-pig PRP IC50, ADP
[2] = aggregating agent collagen 1 to 2 μg/ml, read-out: Guinea-pig PRP IC50, Collagen

CCOC(=O)COC1CCN(C(=O)c2c(-c3ccc(-c4ccc(Cl)cc4)cc3)n(C)n(-c3ccc(C(=N)N)cc3)c2=O)CC1 [Compound No. 2]
IC50 [1]: 8.1 µM | IC50 [2]: 3.9 µM

Cn1cc(C(=O)N2CCC(OCC(=O)O)CC2)c(=O)n1-c1ccc(C(=N)N)cc1 [Compound No. 10]
IC50 [1]: 35 µM | IC50 [2]: 17 µM

CCOC(=O)COC1CCN(C(=O)c2cn(C)n(-c3ccc(C(=N)N)cc3)c2=O)CC1 [Compound No. 11]
IC50 [1]: 31 µM | IC50 [2]: 17 µM

Cn1c(-c2ccc(C(C)(C)C)cc2)c(C(=O)N2CCC(OCC(=O)O)CC2)c(=O)n1-c1ccc(C(=N)N)cc1 [Compound No. 28, 1-(4-amidinophenyl)-3-(4-t-butylphenyl)-4-([4-(carboxymethyloxy)-1-piperidinyl]carbonyl}-2-methyl-2H-pyrazol-5-one hydrochloride]
IC50 [1]: 25 µM | IC50 [2]: 17 µM

Cn1cc(C(=O)NCCCOCC(=O)O)c(=O)n1-c1ccc(C(=N)N)cc1 [compound 7]
IC50 [1]: 300 µM

CCOC(=O)COCCN(C)C(=O)c1c(-c2ccccc2)n(C)n(-c2ccc(C(=N)N)cc2)c1=O [compound 15]
IC50 [1]: 114 µM | IC50 [2]: 57 µM

Cn1c(-c2ccccc2)c(C(=O)N2CCC(OCC(=O)O)CC2)c(=O)n1-c1ccc(C(=N)N)cc1 [compound 17]
IC50 [1]: 20 µM | IC50 [2]: 23 µM

CCOC(=O)COCCNC(=O)c1c(-c2ccc(-c3ccccc3)cc2)n(C)n(-c2ccc(C(=N)N)cc2)c1=O [compound 20]
IC50 [1]: 30 µM | IC50 [2]: 12 µM

CCOC(=O)COC1CCN(C(=O)c2c(-c3ccc(-c4ccccc4)cc3)n(C)n(-c3ccc(C(=N)N)cc3)c2=O)CC1 [compound 23]
IC50 [1]: 17 µM | IC50 [2]: 9.3 µM

Cn1c(-c2ccc(C(C)(C)C)cc2)c(C(=O)NCCOCC(=O)O)c(=O)n1-c1ccc(C(=N)N)cc1 [compound 24]
IC50 [1]: 46 µM | IC50 [2]: 19 µM

CCOC(=O)COCCNC(=O)c1c(-c2ccc(C(C)(C)C)cc2)n(C)n(-c2ccc(C(=N)N)cc2)c1=O [compound 25]
IC50 [1]: 43 µM | IC50 [2]: 20 µM

Cn1c(-c2ccc(C(C)(C)C)cc2)c(C(=O)NC2CCN(CC(=O)O)CC2)c(=O)n1-c1ccc(C(=N)N)cc1 [compound 109]
IC50 [1]: 3.4 µM | IC50 [2]: 4 µM

CCOC(=O)CN1CCC(NC(=O)c2c(-c3ccc(C(C)(C)C)cc3)n(C)n(-c3ccc(C(=N)N)cc3)c2=O)CC1 [compound 110]
IC50 [1]: 5 µM | IC50 [2]: 3.1 µM

CN(C(=O)c1c(-c2ccc(C(C)(C)C)cc2)n(C)n(-c2ccc(C(=N)N)cc2)c1=O)C1CCN(CC(=O)O)CC1 [compound 111]
IC50 [1]: 11 µM | IC50 [2]: 8.1 µM

CCOC(=O)CN1CCC(N(C)C(=O)c2c(-c3ccc(C(C)(C)C)cc3)n(C)n(-c3ccc(C(=N)N)cc3)c2=O)CC1 [compound 112]
IC50 [1]: 37 µM | IC50 [2]: 14 µM

CCOC(=O)CN(C=O)C1CCN(C(=O)c2c(-c3ccc(C(C)(C)C)cc3)n(C)n(-c3ccc(C(=N)N)cc3)c2=O)CC1 [compound 114]
IC50 [1]: 21 µM | IC50 [2]: 14 µM

CN(CC(=O)O)C1CCN(C(=O)c2c(-c3ccc(C(C)(C)C)cc3)n(C)n(-c3ccc(C(=N)N)cc3)c2=O)CC1 [compound 115]
IC50 [1]: 93 µM | IC50 [2]: 68 µM

CCOC(=O)CN(C)C1CCN(C(=O)c2c(-c3ccc(C(C)(C)C)cc3)n(C)n(-c3ccc(C(=N)N)cc3)c2=O)CC1 [compound 116]
IC50 [2]: 90 µM

Cn1c(-c2ccc(-c3ccccc3)cc2)c(C(=O)NC2CCN(CC(=O)O)CC2)c(=O)n1-c1ccc(C(=N)N)cc1 [compound 125]
IC50 [1]: 42 µM | IC50 [2]: 4.2 µM

CCOC(=O)CN1CCC(NC(=O)c2c(-c3ccc(-c4ccccc4)cc3)n(C)n(-c3ccc(C(=N)N)cc3)c2=O)CC1 [compound 126]
IC50 [1]: 76 µM | IC50 [2]: 7.6 µM

CCCCc1ccc(-c2c(C(=O)N3CCC(OCC(=O)OCC)CC3)c(=O)n(-c3ccc(C(=N)N)cc3)n2C)cc1 [compound 128]
IC50 [1]: 20 µM | IC50 [2]: 7.1 µM
